Some test systems named below: HOP-62 NSCLC; MALME-3M melanoma; MOLT-4 leukemia; SK-MEL-5 melanoma; U251 CNS; DU-145 prostate; HS 578T breast; MDA-MB-435; PC-3 prostate; T-47D breast; LXFL 529 NSCLC.
What all share (assay): NCI anticancer screen, dose series, 48 h

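All cell lines were grown in 96-well plates and treated with compound for 48 hours. Here, GI50 denotes the concentration required for 50% inhibition of growth. TGI: total growth inhibition.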

Consider `CC(=O)OC1CCC2(C)C3CCC4(C)C(c5ccc(=O)oc5)CC5OC54C3CCC2(O)C1` (stereo unspecified), for which the TGI in the assay on HOP-62 NSCLC turned out to be 3.41 µM; in the assay on MALME-3M melanoma, 3.21 µM; in the assay on MOLT-4 leukemia, 0.934 µM; in the assay on SK-MEL-5 melanoma, 4.76 µM; with U251 CNS, 9.14 µM.

For `CC(=O)Oc1cccc2c(/C=N/NC(N)=S)ncc(C)c12`, the TGI with DU-145 prostate is 17.8 µM; with HOP-62 NSCLC, 14.6 µM; with HS 578T breast, more than 73 µM; in the assay on MALME-3M melanoma, 42.7 µM; with MDA-MB-435, more than 45.9 µM; in the assay on MOLT-4 leukemia, more than 62.8 µM. Further, the TGI with PC-3 prostate is 33.6 µM; with SK-MEL-5 melanoma, 16.4 µM; with T-47D breast, 31.3 µM; in the assay on U251 CNS it was more than 42.6 µM.

As to `CC1CC=CC(O)C1` (stereo unspecified), the TGI in the assay with HOP-62 NSCLC, with MALME-3M melanoma, in the assay with MOLT-4 leukemia, with SK-MEL-5 melanoma and in the assay on U251 CNS was more than 100 µM each time.

For the compound `NC(CCCCP(=O)(O)O)C(=O)O` (stereo unspecified), the TGI in the assay with DU-145 prostate, in the assay with HS 578T breast, in the assay on MDA-MB-435, in the assay on MOLT-4 leukemia, in the assay with PC-3 prostate and in the assay on SK-MEL-5 melanoma was more than 100 µM each time. Also, the TGI with T-47D breast and in the assay on U251 CNS was more than 100 µM in each case.

In the case of `CCC[CH2][Ge]([CH2]CCC)([CH2]CCC)[O]C(=O)CC(=O)c1ccccc1`, the GI50 was 2.2 µM with HOP-62 NSCLC; 0.325 µM with LXFL 529 NSCLC; 1.47 µM in the assay with MALME-3M melanoma; 0.457 µM with MOLT-4 leukemia; 3.27 µM in the assay on U251 CNS. The TGI is 13.6 µM in the assay with HOP-62 NSCLC; 13.7 µM in the assay with LXFL 529 NSCLC; 13 µM with MALME-3M melanoma; 18 µM with MOLT-4 leukemia; 17.6 µM in the assay with U251 CNS.

For `NNC(N)Nc1ccccc1` (stereo unspecified), the TGI with DU-145 prostate, in the assay on HOP-62 NSCLC, in the assay with HS 578T breast, in the assay with MALME-3M melanoma, in the assay on MDA-MB-435 and with MOLT-4 leukemia was more than 100 µM throughout. The TGI in the assay with PC-3 prostate, in the assay with SK-MEL-5 melanoma, with T-47D breast and with U251 CNS was more than 100 µM in each case.

With `NCCCNc1nc2ccccc2c2c(=O)c3cc(OC(F)(F)F)ccc3sc12`, the GI50 was 1.62 µM with DU-145 prostate; 1.57 µM in the assay with MALME-3M melanoma; 1.59 µM with MDA-MB-435; 1.67 µM in the assay with PC-3 prostate; 1.83 µM with SK-MEL-5 melanoma. Besides, the TGI was 3.04 µM with DU-145 prostate; 3.08 µM in the assay with MALME-3M melanoma; 2.96 µM in the assay with MDA-MB-435; 3.19 µM in the assay on PC-3 prostate; 3.36 µM with SK-MEL-5 melanoma.

`C=CC(Br)(CBr)CCC(Cl)C(C)C` (stereo unspecified): the TGI with DU-145 prostate was found to be 8.69 µM; with HOP-62 NSCLC, 3.2 µM; in the assay with HS 578T breast, 8.01 µM; with MALME-3M melanoma, 3.71 µM; in the assay on MDA-MB-435, 3.5 µM; in the assay with MOLT-4 leukemia, 4.31 µM. In addition, the TGI in the assay with PC-3 prostate came to 14.1 µM; in the assay on SK-MEL-5 melanoma, 3.91 µM; in the assay with U251 CNS, 3.02 µM.

As to `COc1ccccc1C1C(C(=O)O)=C(CO)Oc2cc3c(cc21)OCO3` (stereo unspecified), the TGI in the assay on LXFL 529 NSCLC, with MALME-3M melanoma, in the assay with MOLT-4 leukemia, in the assay on SK-MEL-5 melanoma and in the assay on U251 CNS was more than 100 µM each time.

For `Cc1ccc(S(=O)(=O)Oc2cc(-c3ccccc3)nc3ccccc23)cc1`, the TGI in the assay with HOP-62 NSCLC is 18.8 µM; with MALME-3M melanoma, 17.9 µM; with MOLT-4 leukemia, more than 100 µM; in the assay on SK-MEL-5 melanoma it was 21.3 µM; in the assay with U251 CNS, 9.85 µM.

In the case of `Cc1cc(=O)[nH]c(NN2C(Cl)C(=O)C2c2cccc(O)c2)n1` (stereo unspecified), the TGI with HOP-62 NSCLC, in the assay on LXFL 529 NSCLC, in the assay with MOLT-4 leukemia, in the assay on SK-MEL-5 melanoma and in the assay with U251 CNS was more than 100 µM each time.

For `O=C(OC(=O)n1ccc2ccccc21)n1ccc2ccccc21`, the TGI with HOP-62 NSCLC, with MOLT-4 leukemia, in the assay with SK-MEL-5 melanoma and in the assay with U251 CNS was more than 100 µM in each case.
